From ChEMBL document CHEMBL5442219 come the findings set out here.

Common to all, as to settings: Compound concentration 10 µM
Test [1] concerns the target T1, Muscarinic acetylcholine receptor M2 (Homo sapiens) (UniProt P08172).
T1 sequence (whole entry): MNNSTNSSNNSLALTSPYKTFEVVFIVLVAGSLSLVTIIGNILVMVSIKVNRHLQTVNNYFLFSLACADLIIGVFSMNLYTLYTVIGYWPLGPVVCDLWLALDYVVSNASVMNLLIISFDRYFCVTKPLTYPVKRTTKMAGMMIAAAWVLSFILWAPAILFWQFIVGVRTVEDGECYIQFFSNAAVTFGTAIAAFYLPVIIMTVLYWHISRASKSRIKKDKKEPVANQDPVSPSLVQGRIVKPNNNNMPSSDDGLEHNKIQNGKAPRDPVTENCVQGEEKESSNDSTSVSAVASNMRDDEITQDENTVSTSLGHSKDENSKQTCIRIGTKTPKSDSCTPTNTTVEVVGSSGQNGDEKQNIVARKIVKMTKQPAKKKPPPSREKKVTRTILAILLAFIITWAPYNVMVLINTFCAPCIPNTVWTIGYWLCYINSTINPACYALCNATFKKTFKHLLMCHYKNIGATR
Description: PDSP Primary Binding target: CHRM2 - Compounds are tested at 10 uM concentration, plate are incubated at room temperature in the dark for 90 minutes. Reaction are stopped by vacuum filtration onto 0.3% polyethyleneimine soaked filter mats using Filtermate harvester. Scintilation cocktail is then melted onto microwave-dried filters on a hot plate and the radio activity is counted in Microbia counter.

For test [2], the target named is 5-hydroxytryptamine receptor 1E (Homo sapiens) (UniProt P28566).
5-hydroxytryptamine receptor 1E (Homo sapiens), sequence (P28566 whole entry): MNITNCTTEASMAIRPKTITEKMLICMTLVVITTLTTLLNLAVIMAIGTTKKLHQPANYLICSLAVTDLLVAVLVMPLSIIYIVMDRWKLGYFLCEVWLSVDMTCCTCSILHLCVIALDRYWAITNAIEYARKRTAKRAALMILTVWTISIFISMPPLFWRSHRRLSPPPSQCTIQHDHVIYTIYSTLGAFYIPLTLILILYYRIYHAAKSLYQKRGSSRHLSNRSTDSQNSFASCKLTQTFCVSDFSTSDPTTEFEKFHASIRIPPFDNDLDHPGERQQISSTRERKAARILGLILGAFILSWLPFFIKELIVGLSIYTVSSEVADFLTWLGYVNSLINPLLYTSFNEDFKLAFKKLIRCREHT
Description: PDSP Primary Binding target: HTR1E - Compounds are tested at 10 uM concentration, plate are incubated at room temperature in the dark for 90 minutes. Reaction are stopped by vacuum filtration onto 0.3% polyethyleneimine soaked filter mats using Filtermate harvester. Scintilation cocktail is then melted onto microwave-dried filters on a hot plate and the radio activity is counted in Microbia counter.
The target of test [3] is T2, Alpha-2B adrenergic receptor (Homo sapiens) (UniProt P18089).
T2 sequence (whole entry): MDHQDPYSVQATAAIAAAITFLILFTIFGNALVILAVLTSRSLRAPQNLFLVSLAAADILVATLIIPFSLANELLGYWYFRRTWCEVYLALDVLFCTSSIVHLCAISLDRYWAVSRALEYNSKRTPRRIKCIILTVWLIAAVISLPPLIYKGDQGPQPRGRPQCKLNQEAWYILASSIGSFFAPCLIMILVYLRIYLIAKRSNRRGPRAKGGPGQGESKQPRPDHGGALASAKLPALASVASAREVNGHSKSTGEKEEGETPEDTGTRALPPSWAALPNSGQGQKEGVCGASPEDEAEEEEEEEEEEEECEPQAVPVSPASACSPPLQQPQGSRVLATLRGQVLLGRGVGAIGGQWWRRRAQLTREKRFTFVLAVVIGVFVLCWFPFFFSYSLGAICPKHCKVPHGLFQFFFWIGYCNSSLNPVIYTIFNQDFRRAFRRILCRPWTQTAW
Description: PDSP Primary Binding target: ADRA2B - Compounds are tested at 10 uM concentration, plate are incubated at room temperature in the dark for 90 minutes. Reaction are stopped by vacuum filtration onto 0.3% polyethyleneimine soaked filter mats using Filtermate harvester. Scintilation cocktail is then melted onto microwave-dried filters on a hot plate and the radio activity is counted in Microbia counter.

Test [4] addresses T3, Alpha-2C adrenergic receptor (Homo sapiens) (UniProt P18825).
T3 sequence (whole entry): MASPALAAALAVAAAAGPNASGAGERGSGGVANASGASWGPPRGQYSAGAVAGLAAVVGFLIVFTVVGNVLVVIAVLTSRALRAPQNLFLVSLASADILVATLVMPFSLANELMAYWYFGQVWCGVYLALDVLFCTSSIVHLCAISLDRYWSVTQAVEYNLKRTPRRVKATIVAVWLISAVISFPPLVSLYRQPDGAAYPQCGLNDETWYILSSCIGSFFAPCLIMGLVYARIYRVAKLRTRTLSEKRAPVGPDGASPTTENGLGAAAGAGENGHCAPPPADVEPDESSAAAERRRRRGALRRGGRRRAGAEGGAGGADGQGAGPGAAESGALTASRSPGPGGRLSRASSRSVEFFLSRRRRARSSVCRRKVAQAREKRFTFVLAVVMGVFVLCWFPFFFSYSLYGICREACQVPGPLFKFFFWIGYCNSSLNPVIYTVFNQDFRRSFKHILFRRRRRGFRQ
Description: PDSP Primary Binding target: ADRA2C - Compounds are tested at 10 uM concentration, plate are incubated at room temperature in the dark for 90 minutes. Reaction are stopped by vacuum filtration onto 0.3% polyethyleneimine soaked filter mats using Filtermate harvester. Scintilation cocktail is then melted onto microwave-dried filters on a hot plate and the radio activity is counted in Microbia counter.

Test [5] concerns the target T4, Muscarinic acetylcholine receptor M4 (Homo sapiens) (UniProt P08173).
T4 sequence (whole entry): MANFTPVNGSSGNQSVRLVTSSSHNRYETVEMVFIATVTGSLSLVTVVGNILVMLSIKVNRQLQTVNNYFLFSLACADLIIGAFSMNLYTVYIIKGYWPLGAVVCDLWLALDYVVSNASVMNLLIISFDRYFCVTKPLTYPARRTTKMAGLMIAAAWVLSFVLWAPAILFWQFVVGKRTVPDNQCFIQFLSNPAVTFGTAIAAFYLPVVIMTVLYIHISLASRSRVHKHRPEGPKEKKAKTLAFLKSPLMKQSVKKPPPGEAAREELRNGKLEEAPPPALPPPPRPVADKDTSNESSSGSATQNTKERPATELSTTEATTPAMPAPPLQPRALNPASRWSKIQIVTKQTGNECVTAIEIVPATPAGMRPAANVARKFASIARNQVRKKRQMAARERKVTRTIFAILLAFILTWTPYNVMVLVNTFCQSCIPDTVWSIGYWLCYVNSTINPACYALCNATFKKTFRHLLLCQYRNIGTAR
Description: PDSP Primary Binding target: CHRM4 - Compounds are tested at 10 uM concentration, plate are incubated at room temperature in the dark for 90 minutes. Reaction are stopped by vacuum filtration onto 0.3% polyethyleneimine soaked filter mats using Filtermate harvester. Scintilation cocktail is then melted onto microwave-dried filters on a hot plate and the radio activity is counted in Microbia counter.

The target in test [6] is Sigma non-opioid intracellular receptor 1 (Homo sapiens) (UniProt Q99720).
Sigma non-opioid intracellular receptor 1 (Homo sapiens), sequence (Q99720 whole entry): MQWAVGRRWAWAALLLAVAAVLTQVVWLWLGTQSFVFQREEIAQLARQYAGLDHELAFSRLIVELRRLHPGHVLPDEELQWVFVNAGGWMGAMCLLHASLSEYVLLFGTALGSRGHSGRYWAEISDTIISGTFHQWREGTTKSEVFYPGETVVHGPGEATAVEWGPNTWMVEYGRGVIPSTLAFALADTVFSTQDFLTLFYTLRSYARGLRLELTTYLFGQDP
Description: PDSP Primary Binding target: SIGMAR1 - Compounds are tested at 10 uM concentration, plate are incubated at room temperature in the dark for 90 minutes. Reaction are stopped by vacuum filtration onto 0.3% polyethyleneimine soaked filter mats using Filtermate harvester. Scintilation cocktail is then melted onto microwave-dried filters on a hot plate and the radio activity is counted in Microbia counter.
Test [7] concerns the target Beta-1 adrenergic receptor (Homo sapiens) (UniProt P08588).
Description: PDSP Primary Binding target: ADRB1 - Compounds are tested at 10 uM concentration, plate are incubated at room temperature in the dark for 90 minutes. Reaction are stopped by vacuum filtration onto 0.3% polyethyleneimine soaked filter mats using Filtermate harvester. Scintilation cocktail is then melted onto microwave-dried filters on a hot plate and the radio activity is counted in Microbia counter.
The target in test [8] is Histamine H3 receptor (Homo sapiens) (UniProt Q9Y5N1).
Histamine H3 receptor (Homo sapiens), sequence (Q9Y5N1 whole entry): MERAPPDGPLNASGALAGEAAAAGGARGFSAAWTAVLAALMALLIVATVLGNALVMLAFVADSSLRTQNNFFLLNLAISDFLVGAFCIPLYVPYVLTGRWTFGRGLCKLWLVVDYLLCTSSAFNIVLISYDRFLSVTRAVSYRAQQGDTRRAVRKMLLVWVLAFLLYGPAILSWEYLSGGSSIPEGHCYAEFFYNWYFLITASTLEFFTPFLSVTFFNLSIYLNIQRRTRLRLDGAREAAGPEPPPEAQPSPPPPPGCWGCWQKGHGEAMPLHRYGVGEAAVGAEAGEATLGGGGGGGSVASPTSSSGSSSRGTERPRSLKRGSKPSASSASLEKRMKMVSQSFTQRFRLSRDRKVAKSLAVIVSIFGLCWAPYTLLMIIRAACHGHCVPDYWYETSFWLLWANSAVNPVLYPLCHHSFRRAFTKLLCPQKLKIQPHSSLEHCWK
Description: PDSP Primary Binding target: HRH3 - Compounds are tested at 10 uM concentration, plate are incubated at room temperature in the dark for 90 minutes. Reaction are stopped by vacuum filtration onto 0.3% polyethyleneimine soaked filter mats using Filtermate harvester. Scintilation cocktail is then melted onto microwave-dried filters on a hot plate and the radio activity is counted in Microbia counter.
The target of test [9] is Sodium-dependent serotonin transporter (Homo sapiens) (UniProt P31645).
Sodium-dependent serotonin transporter (Homo sapiens), sequence (P31645 whole entry, looked up): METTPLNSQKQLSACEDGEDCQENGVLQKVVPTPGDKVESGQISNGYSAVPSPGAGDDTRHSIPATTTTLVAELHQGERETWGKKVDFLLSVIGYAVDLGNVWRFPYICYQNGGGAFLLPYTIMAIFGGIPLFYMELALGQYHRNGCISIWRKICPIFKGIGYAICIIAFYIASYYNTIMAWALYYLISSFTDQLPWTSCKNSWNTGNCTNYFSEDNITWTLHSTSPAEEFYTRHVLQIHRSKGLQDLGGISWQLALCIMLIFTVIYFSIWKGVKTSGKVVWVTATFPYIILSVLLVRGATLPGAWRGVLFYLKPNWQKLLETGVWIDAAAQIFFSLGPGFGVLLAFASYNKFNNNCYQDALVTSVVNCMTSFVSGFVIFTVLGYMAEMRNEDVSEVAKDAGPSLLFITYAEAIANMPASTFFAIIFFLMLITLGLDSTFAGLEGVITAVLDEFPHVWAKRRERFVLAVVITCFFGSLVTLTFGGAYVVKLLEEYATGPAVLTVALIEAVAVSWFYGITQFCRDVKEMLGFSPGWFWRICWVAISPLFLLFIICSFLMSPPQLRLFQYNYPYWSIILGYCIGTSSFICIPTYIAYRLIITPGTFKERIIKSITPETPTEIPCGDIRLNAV
Description: PDSP Primary Binding target: SLC6A4 - Compounds are tested at 10 uM concentration, plate are incubated at room temperature in the dark for 90 minutes. Reaction are stopped by vacuum filtration onto 0.3% polyethyleneimine soaked filter mats using Filtermate harvester. Scintilation cocktail is then melted onto microwave-dried filters on a hot plate and the radio activity is counted in Microbia counter.
Test [10] has as its target T5, Muscarinic acetylcholine receptor M5 (Homo sapiens) (UniProt P08912).
T5 sequence (whole entry): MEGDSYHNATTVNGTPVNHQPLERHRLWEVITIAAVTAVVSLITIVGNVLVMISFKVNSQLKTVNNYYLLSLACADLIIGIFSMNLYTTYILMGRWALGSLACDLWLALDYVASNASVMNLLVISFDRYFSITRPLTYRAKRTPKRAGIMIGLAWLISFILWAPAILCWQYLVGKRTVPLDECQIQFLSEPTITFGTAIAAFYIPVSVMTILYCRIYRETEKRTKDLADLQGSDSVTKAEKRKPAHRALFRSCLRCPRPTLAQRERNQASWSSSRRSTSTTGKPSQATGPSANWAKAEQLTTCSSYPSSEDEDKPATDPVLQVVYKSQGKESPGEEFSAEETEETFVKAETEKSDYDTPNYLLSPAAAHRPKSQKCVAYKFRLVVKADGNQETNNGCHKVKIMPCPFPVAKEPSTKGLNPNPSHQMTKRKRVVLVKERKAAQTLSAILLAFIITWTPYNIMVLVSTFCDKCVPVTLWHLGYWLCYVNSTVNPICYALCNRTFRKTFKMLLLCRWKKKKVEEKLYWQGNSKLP
Description: PDSP Primary Binding target: CHRM5 - Compounds are tested at 10 uM concentration, plate are incubated at room temperature in the dark for 90 minutes. Reaction are stopped by vacuum filtration onto 0.3% polyethyleneimine soaked filter mats using Filtermate harvester. Scintilation cocktail is then melted onto microwave-dried filters on a hot plate and the radio activity is counted in Microbia counter.

Test [11] deals with Translocator protein (Homo sapiens) (UniProt P30536).
Translocator protein (Homo sapiens), sequence (P30536 whole entry): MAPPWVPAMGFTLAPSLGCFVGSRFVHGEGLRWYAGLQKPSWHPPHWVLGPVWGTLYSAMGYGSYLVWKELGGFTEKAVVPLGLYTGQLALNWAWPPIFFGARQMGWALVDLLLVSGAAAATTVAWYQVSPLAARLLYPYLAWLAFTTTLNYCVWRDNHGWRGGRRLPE
Description: PDSP Primary Binding target: TSPO - Compounds are tested at 10 uM concentration, plate are incubated at room temperature in the dark for 90 minutes. Reaction are stopped by vacuum filtration onto 0.3% polyethyleneimine soaked filter mats using Filtermate harvester. Scintilation cocktail is then melted onto microwave-dried filters on a hot plate and the radio activity is counted in Microbia counter.
For test [12], the target named is 5-hydroxytryptamine receptor 6 (Homo sapiens) (UniProt P50406).
5-hydroxytryptamine receptor 6 (Homo sapiens), sequence (P50406 whole entry): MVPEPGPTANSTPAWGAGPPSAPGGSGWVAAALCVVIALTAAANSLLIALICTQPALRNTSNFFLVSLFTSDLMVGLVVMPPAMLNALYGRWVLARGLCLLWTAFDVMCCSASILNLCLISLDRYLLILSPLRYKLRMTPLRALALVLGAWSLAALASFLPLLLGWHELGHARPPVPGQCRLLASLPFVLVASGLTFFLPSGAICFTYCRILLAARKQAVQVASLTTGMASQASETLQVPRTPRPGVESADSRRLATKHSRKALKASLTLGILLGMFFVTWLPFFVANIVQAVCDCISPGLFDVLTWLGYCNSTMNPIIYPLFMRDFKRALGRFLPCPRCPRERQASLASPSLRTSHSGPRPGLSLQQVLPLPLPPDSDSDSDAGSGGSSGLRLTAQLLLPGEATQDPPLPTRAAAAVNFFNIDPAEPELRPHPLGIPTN
Description: PDSP Primary Binding target: HTR6 - Compounds are tested at 10 uM concentration, plate are incubated at room temperature in the dark for 90 minutes. Reaction are stopped by vacuum filtration onto 0.3% polyethyleneimine soaked filter mats using Filtermate harvester. Scintilation cocktail is then melted onto microwave-dried filters on a hot plate and the radio activity is counted in Microbia counter.
For test [13], the target named is 5-hydroxytryptamine receptor 5A (Homo sapiens) (UniProt P47898).
5-hydroxytryptamine receptor 5A (Homo sapiens), sequence (P47898 whole entry): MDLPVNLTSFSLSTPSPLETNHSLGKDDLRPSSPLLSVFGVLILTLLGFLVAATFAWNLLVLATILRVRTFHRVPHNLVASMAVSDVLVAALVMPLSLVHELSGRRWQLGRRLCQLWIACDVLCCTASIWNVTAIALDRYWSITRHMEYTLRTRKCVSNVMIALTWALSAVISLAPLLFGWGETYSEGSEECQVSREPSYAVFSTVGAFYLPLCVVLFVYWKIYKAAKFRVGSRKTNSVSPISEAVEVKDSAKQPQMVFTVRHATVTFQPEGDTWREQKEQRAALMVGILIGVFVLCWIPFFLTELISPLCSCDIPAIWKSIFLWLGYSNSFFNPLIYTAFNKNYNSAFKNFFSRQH
Description: PDSP Primary Binding target: HTR5A - Compounds are tested at 10 uM concentration, plate are incubated at room temperature in the dark for 90 minutes. Reaction are stopped by vacuum filtration onto 0.3% polyethyleneimine soaked filter mats using Filtermate harvester. Scintilation cocktail is then melted onto microwave-dried filters on a hot plate and the radio activity is counted in Microbia counter.
In test [14] the target is Sodium-dependent noradrenaline transporter (Homo sapiens) (UniProt P23975).
Sodium-dependent noradrenaline transporter (Homo sapiens), sequence (P23975 whole entry): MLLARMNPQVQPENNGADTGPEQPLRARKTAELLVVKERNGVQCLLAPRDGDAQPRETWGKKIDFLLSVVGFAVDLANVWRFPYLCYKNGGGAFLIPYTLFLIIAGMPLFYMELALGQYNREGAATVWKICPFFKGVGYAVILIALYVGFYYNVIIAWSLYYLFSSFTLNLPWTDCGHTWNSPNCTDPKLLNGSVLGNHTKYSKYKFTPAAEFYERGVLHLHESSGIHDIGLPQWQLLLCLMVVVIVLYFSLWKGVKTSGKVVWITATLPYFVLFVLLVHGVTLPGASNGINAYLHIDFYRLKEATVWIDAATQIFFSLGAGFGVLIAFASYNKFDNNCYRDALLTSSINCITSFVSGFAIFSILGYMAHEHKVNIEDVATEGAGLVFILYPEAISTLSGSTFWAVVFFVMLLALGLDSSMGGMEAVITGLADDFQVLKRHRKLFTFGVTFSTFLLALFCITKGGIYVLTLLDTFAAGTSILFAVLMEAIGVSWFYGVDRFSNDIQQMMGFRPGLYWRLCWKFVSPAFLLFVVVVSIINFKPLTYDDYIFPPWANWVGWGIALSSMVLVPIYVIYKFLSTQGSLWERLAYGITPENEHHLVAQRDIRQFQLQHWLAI
Description: PDSP Primary Binding target: SLC6A2 - Compounds are tested at 10 uM concentration, plate are incubated at room temperature in the dark for 90 minutes. Reaction are stopped by vacuum filtration onto 0.3% polyethyleneimine soaked filter mats using Filtermate harvester. Scintilation cocktail is then melted onto microwave-dried filters on a hot plate and the radio activity is counted in Microbia counter.

Beta-1 adrenergic receptor (Homo sapiens), sequence (P08588 whole entry, looked up): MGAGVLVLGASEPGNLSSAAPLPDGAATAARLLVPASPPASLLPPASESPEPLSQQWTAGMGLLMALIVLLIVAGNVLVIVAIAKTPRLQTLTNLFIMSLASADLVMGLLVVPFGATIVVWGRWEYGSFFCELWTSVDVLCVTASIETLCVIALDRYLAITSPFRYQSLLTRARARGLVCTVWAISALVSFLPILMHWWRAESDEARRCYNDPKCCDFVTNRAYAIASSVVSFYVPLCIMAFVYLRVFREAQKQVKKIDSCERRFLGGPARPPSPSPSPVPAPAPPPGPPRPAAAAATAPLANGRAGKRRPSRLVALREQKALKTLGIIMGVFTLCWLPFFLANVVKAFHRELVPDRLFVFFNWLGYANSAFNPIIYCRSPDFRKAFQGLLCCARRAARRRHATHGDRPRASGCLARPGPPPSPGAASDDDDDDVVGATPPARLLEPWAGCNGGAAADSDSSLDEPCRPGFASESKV

In the case of `CCCCCCCCCCCCC/C=C/[C@@H](O)[C@@H](N)COP(=O)(O)O`, the inhibition (usually the change of the read-out against control, counted positive when it falls) was -7.68% in test [1]; 14.4% in test [2]; -1.62% in [3]; -4.87% in test [4]; -2.5% in [5]; 63.8% in [6]. Further, the inhibition in [7] is 0.96%; in test [8], 6.7%; in test [9] it was -0.47%; in test [10], 6.31%; in test [11], 64.6%; in [12], 3.57%. Besides, the inhibition in test [13] is -4.35%; in [14], 35.1%.

Consider `O=C(O)c1cc(-c2ccc(C3CCNCC3)cc2)c2ccc(-c3ccc(C(F)(F)F)cc3)cc2c1`, for which the inhibition was 10.7% in [1]; 2.57% in test [2]; 40.4% in test [3]; 27.2% in test [4]; -1.1% in [5]; 31.5% in test [6]. The inhibition is 47% in [7]; 10.6% in [8]; 4.44% in test [9]; 51.9% in test [10]; 21.7% in [11]; 11.3% in [12]. For the same molecule, the inhibition is 69% in test [13] and 88% in test [14].

As for `NC(=O)[C@@H]1CCCN1C(=O)[C@H](Cc1c[nH]cn1)NC(=O)[C@@H]1CCC(=O)N1`, the inhibition in [1] is -6.24%; in [2], -5.34%; in [3] it was 14%; in test [4], 49.8%; in test [5] it was -2.83%; in test [6], 34.1%. Besides, the inhibition in [7] is -1.74%; in test [8] it was 10.9%; in test [9] it was 5.26%; in test [10], 5.07%; in test [11], 73.2%; in test [12], 10.6%. The inhibition was 5.27% in test [13] and 35.9% in test [14].

`CN1CCN(c2ccc(Nc3c4ccccc4nc4ccccc34)cc2)CC1`: the inhibition is 63.8% in test [1]; 46.2% in test [2]; 66% in test [3]; 105% in test [4]; 24.6% in [5]; 86.4% in test [6]. In addition, the inhibition in test [7] is 0.45%; in [8] it was 82.6%; in [9], 87.7%; in [10] it was 42.3%; in [11], 6%; in test [12], 13.8%. Moreover, the inhibition in [13] was 20.3%; in [14] it was 84.7%.
